Results on 22 compounds are retold here after US4250176A, “Piperazine derivatives” (priority 1979, dated 1981).

≈ marks a conversion by molar mass, not a printed value. Structures can show the parent of a compound that is named as a salt. Where two headings read alike, the source gives them in different places. Some results are limits rather than exact numbers.

In experiment [1] the test system is Guinea-pig ileum strips, histamine-induced contraction. Put plainly: Anti-histamine activity in "vitro": histamine-induced spasms of guinea-pig ileum strips. It is filed as cell-based. As to conditions: Cavia porcellus, 5 min, histamine 0.5 mg/liter, 5 minutes incubation, concentration giving significant inhibition (50%) of the contraction. As to the method:
The histamine--(0.5 mg/liter) induced spasms are recorded Kymographically with an isotonic lever giving a 5-fold magnification.

Experiment [2] concerns Guinea pigs sensitized to ovalbumin (anaphylactic shock). Put plainly: Anaphylaxis in guinea pigs: protection against death after ovalbumin challenge (survival). Type of experiment: in vivo, guinea pig. The settings on record: Cavia porcellus, estimated ED50, oral, protection against death after i.v. 0.6 mg ovalbumin, read-out: Anaphylaxis in guinea pigs oral effective dose in mg/kg: Survival. As to the method: The anti-anaphylactic and antihistaminic effects of the subject compounds (I) and salts thereof are studied "in vivo" in guinea pigs.
Guinea pigs, weighing between 400 and 500 g, are sensitized to ovalbumin by subplantar (s.p.) injection of 0.05 ml of antiserum in the left hind paw. The animals are then starved and orally treated, 24 hours after the sensitization, with saline (=control animals) or a particular dose of the compound under investigation.
The histamine injection (at a dose of 50 μg) was given s.p. in the right hind paw 2 hours after the oral pretreatment with the compound. The diameters of both hind paws are first measured before the histamine injection is given and again 10 minutes thereafter. The animals are challenged intravenously with 0.6 mg of ovalbumin 30 minutes after the histamine injection. All control animals develop typical primary anaphylactic shock symptoms (coughing, difficult breathing, convulsions) and 85% of these control animals die within 15 minutes after the ovalbumin injection. Protection against death is used as the criterion for possible drug effects and the estimated ED50 -value, i.e. the oral dose whereby the protection is observed in 50% of the guinea pigs, is listed in the tables below.

Experiment [3] relates to histamine paw oedema in guinea pigs. The experiment is described as follows: Histamine paw oedema in guinea pigs. The settings on record: Cavia porcellus, oral dose giving paw reaction below 10 units 10 minutes after 50 μg histamine s.p., 2 hours after dosing, read-out: Anaphylaxis in guinea pigs oral effective dose in mg/kg: Histamine oedema. It is filed as in vivo, guinea pig. The method, then:
Guinea pigs, weighing between 400 and 500 g, are sensitized to ovalbumin by subplantar (s.p.) injection of 0.05 ml of antiserum in the left hind paw. The animals are then starved and orally treated, 24 hours after the sensitization, with saline (=control animals) or a particular dose of the compound under investigation. The histamine injection (at a dose of 50 μg) was given s.p. in the right hind paw 2 hours after the oral pretreatment with the compound.

Setting [4] is: Table I-a, read-out: Histamine in "vitro" (ileum) effective conc.
The mark [5] stands for this setting: Table I-b, read-out: Histamine in "vitro" (ileum) effective conc.
The mark [6] stands for this setting: Table I-e, read-out: Histamine in "vitro" (ileum) effective dose.

On to `CNC(=O)n1c(=O)n(CCCN2CCN(C(c3ccccc3)c3ccccc3)CC2)c2ccccc21` [3-{3-[4-(diphenylmethyl)-1-piperazinyl]propyl}-2,3-dihydro-N-methyl-2-oxo-1H-benzimidazole-1-carboxamide], for which the IC50 in experiment [1] (setting [4]) amounted to 0.02 µg/mL (≈ 0.0414 µM).

For the compound `O=C(O)Cn1c(=O)n(CCCN2CCN(C(c3ccccc3)c3ccccc3)CC2)c2ccccc21` [3-{3-[4-(diphenylmethyl)-1-piperazinyl]-propyl}-2,3-dihydro-2-oxo-1H-benzimidazole-1-acetic acid hemihydrate], the IC50 in experiment [1] (setting [4]) worked out at 0.08 µg/mL. The ED50 in experiment [2] (Table I-a) is less than 2.5 mg/kg. The minimal effective dose in experiment [3] (Table I-a) was less than 2.5 mg/kg.

Consider `O.O=c1[nH]c2ccc(Cl)cc2n1CCCN1CCN(C(c2ccc(F)cc2)c2ccc(F)cc2)CC1` [1-[3-{4-[bis(4-fluorophenyl)methyl]-1-piperazinyl}propyl]-6-chloro-1,3-dihydro-2H-benzimidazol-2-one hydrate], for which the IC50 in experiment [1] (setting [4]) was determined as 0.02 µg/mL. Moreover, the ED50 in experiment [2] (Table I-a) was 0.63 mg/kg. Also, in experiment [3] (Table I-a), the minimal effective dose is 1.25 mg/kg.

With `O=c1[nH]c2ccccc2n1CCCN1CCC(OC(c2ccc(F)cc2)c2ccc(F)cc2)CC1` [1-[3-{4-[bis(4-fluorophenyl)methoxy]-1-piperidinyl}propyl]-1,3-dihydro-2H-benzimidazol-2-one hydrochloride.hemihydrate], the IC50 in experiment [1] (Table I-d, read-out: Histamine in "vitro" (ileum) effective dose) turned out to be 0.0025 µg/mL. Moreover, the ED50 in experiment [2] (Table I-d) was 0.63 mg/kg. In addition, the minimal effective dose in experiment [3] (Table I-d) worked out at 0.63 mg/kg.

With `Fc1ccc(C(c2ccc(F)cc2)N2CCN(CCCCn3cnc4ccccc43)CC2)cc1` [I-b: M=H, R1=H, (CH2)4, R6=4-F, R7=4-F, 1-[4-{4-[bis(4-fluorophenyl)methyl]-1-piperazinyl}butyl]-1H-benzimidazole], the IC50 in experiment [1] (setting [5]) was 0.005 µg/mL (≈ 0.0109 µM). Further, the ED50 in experiment [2] (Table I-b) was 0.31 mg/kg. The minimal effective dose in experiment [3] (Table I-b) was determined as 0.31 mg/kg.

With `c1ccc(-c2nc3ccccc3n2CCCN2CCN(C(c3ccccc3)c3ccccc3)CC2)cc1` [I-b: M=C6H5, R1=H, (CH2)3, R6=H, R7=H, 1-{3-[4-(diphenylmethyl)-1-piperazinyl]propyl}-2-phenyl-1H-benzimidazole], the IC50 in experiment [1] (setting [5]) turned out to be 0.08 µg/mL (≈ 0.164 µM).

As for `O=c1[nH]c2cccc(Cl)c2n1CCCN1CCN(C(c2ccccc2)c2ccccc2)CC1` [4-chloro-3-{3-[4-(diphenylmethyl)-1-piperazinyl]propyl}-1,3-dihydro-2H-benzimidazol-2-one], the IC50 in experiment [1] (setting [4]) was found to be 0.08 µg/mL (≈ 0.174 µM). Further, the ED50 in experiment [2] (Table I-a) was no less than 2.5 mg/kg.

As to `Cc1ccc(C)c(C(c2ccccc2)N2CCN(CCCn3c(=O)[nH]c4ccccc43)CC2)c1` (stereo not drawn) [I-e: Ar1=C6H5, Ar2=2,5-(CH3)2C6H3, 1-[3-{4-[(2,5-dimethylphenyl)phenylmethyl]-1-piperazinyl}propyl]-1,3-dihydro-2H-benzimidazol-2-one], the IC50 in experiment [1] (setting [6]) amounted to 0.16 µg/mL (≈ 0.352 µM).

Turning to `O=c1[nH]c2ccccc2n1CCCN1CCN(C(c2ccncc2)c2ccc(F)cc2)CC1` (stereo not drawn) [I-e: Ar1=4-FC6H4, Ar2=4-pyridinyl, 1-[3-{4-[(4-fluorophenyl)(4-pyridinyl)methyl]-1-piperazinyl}propyl]-1,3-dihydro-2H-benzimidazol-2-one], the IC50 in experiment [1] (setting [6]) came to 0.16 µg/mL (≈ 0.359 µM). The minimal effective dose in experiment [3] (Table I-e) was no more than 2.5 mg/kg.

On to `O=c1[nH]c2ccccc2n1CCCN1CCN(C(c2ccccc2)c2ccccn2)CC1` (stereo not drawn) [I-e: Ar1=C6H5, Ar2=2-pyridinyl, 1,3-dihydro-1-[3-{4-[phenyl(2-pyridinyl)methyl]-1-piperazinyl}propyl]-2H-benzimidazol-2-one], for which, in experiment [1] (setting [6]), the IC50 stood at 0.16 µg/mL (≈ 0.374 µM). Besides, the minimal effective dose in experiment [3] (Table I-e) was determined as 2.5 mg/kg.

In the case of `O=c1n(CCCN2CCN(C(c3ccccc3)c3ccccc3)CC2)c2ccc(Cl)cc2n1-c1ccccc1` [5-chloro-1-{3-[4-(diphenylmethyl)-1-piperazinyl]propyl}-1,3-dihydro-3-phenyl-2H-benzimidazol-2-one dihydrochloride.hemihydrate], in experiment [1] (setting [4]), the IC50 was found to be 0.08 µg/mL.

As for `O=c1[nH]c2ccccc2n1CCCN1CCN(C(c2ccccc2)c2ccccc2Cl)CC1` (stereo not drawn) [1-[3-{4-[(2-chlorophenyl)phenylmethyl]-1-piperazinyl}-propyl]-1,3-dihydro-2H-benzimidazol-2-one], the IC50 in experiment [1] (setting [4]) came to 0.08 µg/mL (≈ 0.174 µM).

For the compound `Clc1ccc2c(c1)nc(Cc1ccccc1)n2CCCN1CCN(C(c2ccccc2)c2ccccc2)CC1` [5-chloro-1-{3-[4-(diphenylmethyl)-1-piperazinyl]propyl}-2-(phenylmethyl)-1H-benzimidazole trihydrochloride.hydrate], in experiment [2] (Table I-b), the ED50 is 2.5 mg/kg.

On to `CCc1nc2cc(Cl)ccc2n1CCCN1CCN(C(c2ccccc2)c2ccccc2)CC1` [I-b: M=C2H5, R1=5-Cl, (CH2)3, R6=H, R7=H, 5-chloro-1-{3-[4-(diphenylmethyl)-1-piperazinyl]propyl}-2-ethyl-1H-benzimidazole trihydrochloride.hydrate], for which the IC50 in experiment [1] (setting [5]) was found to be 0.01 µg/mL.

As to `c1ccc(Cc2nc3ccccc3n2CCCN2CCN(C(c3ccccc3)c3ccccc3)CC2)cc1` [I-b: M=C6H5CH2, R1=H, (CH2)3, R6=H, R7=H, 1-{3-[4-(diphenylmethyl)-1-piperazinyl]propyl}-2-(phenylmethyl)-1H-benzimidazole trihydrochloride.trihydrate], the IC50 in experiment [1] (setting [5]) was no less than 0.16 µg/mL.

For `CC(CN1CCN(C(c2ccccc2)c2ccccc2)CC1)Cn1cnc2ccccc21` (stereo not drawn) [1-{3-[4-(diphenylmethyl)-1-piperazinyl]-2-methylpropyl}-1H-benzimidazole trihydrochloride.hemihydrate], in experiment [1] (setting [5]), the IC50 turned out to be 0.02 µg/mL.

Turning to `Clc1ccc2nc(C3CCCCC3)n(CCCN3CCN(C(c4ccccc4)c4ccccc4)CC3)c2c1` [6-chloro-2-cyclohexyl-1-[3-[4-(diphenylmethyl)-1-piperazinyl]propyl}-1H-benzimidazole], the ED50 in experiment [2] (Table I-b) was 2.5 mg/kg.

Consider `CCc1nc2ccccc2n1CCN1CCN(C(c2ccccc2)c2ccccc2)CC1` [I-b: M=C2H5, R1=H, (CH2)2, R6=H, R7=H, 1-{2-[4-(diphenylmethyl)-1-piperazinyl]ethyl}-2-ethyl-1H-benzimidazole trihydrochloride.hydrate], for which the IC50 in experiment [1] (setting [5]) is no less than 0.16 µg/mL.

With `Clc1ccc2nc(-c3ccccc3)n(CCCN3CCN(C(c4ccccc4)c4ccccc4)CC3)c2c1` [I-b: M=C6H5, R1=6-Cl, (CH2)3, R6=H, R7=H, 6-chloro-1-{3-[4-(diphenylmethyl)-1-piperazinyl]propyl}-2-phenyl-1H-benzimidazole], in experiment [2] (Table I-b), the ED50 was 2.5 mg/kg.

On to `CC(=O)N=c1[nH]c2ccccc2n1CCCN1CCN(C(c2ccccc2)c2ccccc2)CC1` [I-b: M=CH3CONH, R1=H, (CH2)3, R6=H, R7=H, N-[1-{3-[4-(diphenylmethyl)-1-piperazinyl]propyl}-1,3-dihydro-2H-benzimidazol-2-ylidene]acetamide], for which the IC50 in experiment [1] (setting [5]) was no less than 0.16 µg/mL. Further, the ED50 in experiment [2] (Table I-b) is 2.5 mg/kg.

Consider `O=c1[nH]c2ccccc2n1CCCN1CCN(C(c2ccccc2)c2cccnc2)CC1` (stereo not drawn) [I-e: Ar1=C6H5, Ar2=3-pyridinyl, 1,3-dihydro-1-[3-{4-[phenyl(3-pyridinyl)methyl]-1-piperazinyl}propyl]-2H-benzimidazol-2-one], for which the IC50 in experiment [1] (setting [6]) worked out at 0.08 µg/mL (≈ 0.187 µM). The minimal effective dose in experiment [3] (Table I-e) is less than 2.5 mg/kg.

Regarding `Clc1ccc2c(c1)nc(C1CCCCC1)n2CCCN1CCN(C(c2ccccc2)c2ccccc2)CC1` [5-chloro-2-cyclohexyl-1-{5-[4-diphenylmethyl)-1-piperazinyl]propyl}-1H-benzimidazole], the ED50 in experiment [2] (Table I-b) is 0.63 mg/kg. The minimal effective dose in experiment [3] (Table I-b) is 2.5 mg/kg.
